We go through 17 compounds from ChEMBL document CHEMBL1130224, “5-(N-oxyaza)-7-substituted-1,4-dihydroquinoxaline-2,3-diones: novel, systemically active and broad spectrum antagonists for NMDA/glycine, AMPA, and kainate receptors” (J Med Chem, 1997).

Series [1] in a line: Partition coefficient determined using octanol versus pH 7.4 buffer. The series is classed as physicochemical. The following applies: octanol/pH 7.4 buffer.
The species named for series [2] is Mus musculus. Description: Anticonvulsant activity tested in mouse. The series is classed as functional.
The target of series [3] is T1, Glutamate receptor ionotropic, NMDA 1 (Rattus norvegicus, UniProt P35439). Description: Binding affinity in rat brain cortical membranes by the displacement of [3H]- DCKA at N-methyl-D-aspartate glutamate receptor 1. The series is classed as cell membranes.
The target in series [4] is T2, Glutamate receptor ionotropic, AMPA (Rattus norvegicus, UniProt P19490+P19491+P19492+P19493).
Description: Binding affinity in rat brain cortical membranes by the displacement of [3H]AMPA at Ionotropic glutamate receptor AMPA
The target in series [5] is Glutamate receptor ionotropic, kainate. Description: Displacement of [3H]kainate from rat brain cortical membrane Ionotropic glutamate receptor kainate. (In a radioligand displacement assay an active substance lowers the binding of a labelled ligand.)
The target in series [6] is Glutamate NMDA receptor. Description: Displacement of [3H]DCKA at N-methyl-D-aspartate glutamate receptor 1. The series is classed as protein-complex assay, Rattus norvegicus.
The target in series [7] is T1, Glutamate receptor ionotropic, NMDA 1. The series can be described thus: Inhibition of binding of [3H]DCKA to N-methyl-D-aspartate glutamate receptor 1 in rat brain membrane. The series is classed as cell membranes.
In series [8] the target is T2, Glutamate receptor ionotropic, AMPA. Description: Inhibition of binding of [3H]AMPA to Ionotropic glutamate receptor AMPA in rat brain membrane. The series is classed as cell membranes.
Series [9] is filed under the species Mus musculus. Description: Mouse maximum electroshock induced test seizure test in mice. The series is classed as functional.
Series [10] has as its system Mus musculus. The series can be described thus: Antinociceptive activity of tail flick test in mice, when administarted intrathecally. The series is classed as functional. (In general: Hot-plate and tail-flick tests time the reaction to a heat stimulus.)
In series [11] the target is Glutamate receptor ionotropic, AMPA (Rattus norvegicus) (UniProt P19491+P19492+P19493+P19490). Description: Inhibition of Ionotropic glutamate receptor AMPA was measured in oocytes expressing rat cerebral cortex poly (A)+ RNA. The series is classed as functional, cell-based. Conditions: Oocyte.
The test system of series [12] is Rattus norvegicus. The series can be described thus: Reduction in cortical infarct volume when 20 mg/kg administarted Iv bolus followed by 14 mg/kg /h IV infusion for 22 hr in rat peramanent middle cerebral artery (MCA). The series is classed as functional.
The target of series [13] is Glutamate receptor ionotropic, NMDA 1 (Rattus norvegicus) (UniProt P35439). The series can be described thus: Inhibition of NMDA/glycine receptors was measured in oocytes expressing the cloned rat NMDA receptor subunit combination NR1A/2C. The series is classed as functional, cell-based. Conditions: Oocyte.
Series [14] is described as follows: The steady state selectivity index for inhibition of NMDA/glycine receptors was estimated by dividing Kb (AMPA) by Kb (NMDA/glycine).
The target of series [15] is Glutamate receptor ionotropic, NMDA 1 (Rattus norvegicus) (UniProt P35439). Description: Inhibition of N-methyl-D-aspartate glutamate receptor 1 was measured in oocytes expressing the cloned rat NMDA receptor subunit combination NR1A/2C. The series is classed as functional, cell-based. Conditions: Oocyte.
For series [16], the system named is Mus musculus. The series can be described thus: Antinociceptive activity in mouse tail flick test, when administered intrathecally. The series is classed as functional.

In general, logD refers to the decadic logarithm of the distribution of all forms, ionised or not, between an organic phase and buffer at a given pH. A higher logD goes with a more lipophilic compound. One may read the IC50 as the point on the concentration scale where inhibition reaches its midpoint. Low values mean inhibition by little substance, high ones a need for much substance. For the compound `O=c1[nH]c2cc(C(F)(F)F)c[n+]([O-])c2[nH]c1=O`, the logD in [1] is -2.35. In series [2], the ED50 came out at 6.3 mg/kg. Besides, the IC50 in [3] was 1.05 µM; in [4], 5.9 µM; in series [5], 7.5 µM.
`O=[N+]([O-])c1ccc2nc(O)c(O)nc2c1`: the results for the IC50 in series [4], in [5] and in series [6] were 7.7 µM, 15 µM and 3.8 µM, respectively.
`O=[N+]([O-])c1ccc2cc(NS(=O)(=O)C(F)(F)F)c(O)nc2c1`: the IC50 in [7] amounted to 0.62 µM; in [8], 0.63 µM.
Take `NS(=O)(=O)c1cccc2c1c([N+](=O)[O-])cc1nc(O)c(O)nc12` [NBQX]: the ED50 in [9] amounted to 13.1 mg/kg; in series [10], 1.6 ug mouse-1.
In the case of `Oc1nc2cc(C(F)(F)F)cnc2nc1O`, the IC50 in series [4] came out at 18 µM; in [5], 16 µM; in series [6] it was 1.9 µM.
Turning to `O=c1[nH]c2ccc(Cl)cc2[nH]c1=O`, the IC50 in series [4] and in series [5] was 52 µM in each case.
Take `[O-][n+]1cc(Br)cc2nc(O)c(O)nc21`: the pH-dependent lipophilicity (logD) in [1] is -2.48. The compound also registered an ED50 in [2] of 0.87 mg/kg. Further, the figures for the IC50 in [3], in series [4] and in [5] were 1 µM, 6.7 µM and 3.4 µM, respectively.
In the case of `[O-][n+]1cc(Cl)cc2nc(O)c(O)nc21`, the Kb in series [11] was found to be 3.9 µM; in series [13], 0.63 µM. In addition, the logD in series [1] is -2.66. Also, in [2], the ED50 turned out to be 0.82 mg/kg. The same compound registered a Reduction in series [12] of 67%. Also, the IC50 in series [4] amounted to 9.9 µM; in [5] it was 5.3 µM; in series [6] it was 0.82 µM. Besides, the Selectivity index in series [14] was 6.2.
Turning to `CN1CCc2c([N+](=O)[O-])cc3[nH]c(=O)c(=O)[nH]c3c2C1`, the ED50 in [9] was found to be 0.44 mg/kg. Moreover, the half-inhibitory concentration (IC50) in [5] was found to be 0.36 µM; in [6] it was 0.37 µM.
Take `Cc1cc2[nH]c(=O)c(=O)[nH]c2[n+]([O-])c1`: the logD in series [1] was -2.91. This compound also displayed an ED50 in series [2] of 0.97 mg/kg. The results for the 50% inhibitory concentration (IC50) in series [3], in series [4] and in series [5] were 5.9 µM, 14 µM and 11.9 µM, respectively.
With `Cc1cnc2nc(O)c(O)nc2c1`, the IC50 was 67 µM in series [4], 49 µM in [5] and 41 µM in series [6].
On to `O=[N+]([O-])c1cnc2nc(O)c(O)nc2c1`, for which the results for the Kb in series [15] and in [11] were 0.43 µM and 1.4 µM, respectively. Besides, the logD in series [1] is -0.97. Besides, the ED50 in series [2] was 4.5 mg/kg. In addition, the values for the IC50 in series [4], in series [5] and in series [6] were 3.3 µM, 4.4 µM and 1.1 µM, respectively.
Turning to `O=C1Nc2cc(Cl)ccc2CC1[N+](=O)[O-]` (configuration not stated), the Kb in series [15] came out at 6.7 µM; in series [11], 9.2 µM.
With `Oc1nc2cc(Br)cnc2nc1O`, the 50% inhibitory concentration (IC50) in series [4] was determined as 32 µM; in series [5], 16 µM; in series [6], 4.1 µM.
For `O=c1[nH]c2cc([N+](=O)[O-])c[n+]([O-])c2[nH]c1=O`, the ED50 was 2.6 ug mouse-1 in [16] and 4.6 mg/kg in series [2]. For the same compound, in series [1], the pH-dependent lipophilicity (logD) is -3.31. Besides, the IC50 came to 0.69 µM in series [3], 1.3 µM in [4] and 2.4 µM in series [5].
In turn, `O=c1[nH]c2cc(Cl)c(Cl)c([N+](=O)[O-])c2[nH]c1=O` [LICOSTINEL] had a log distribution coefficient (logD) in series [1] of 0.21. For the same compound, the ED50 in series [2] is 4 mg/kg. For the same compound, the half-inhibitory concentration (IC50) was determined as 1.5 µM in [4] and 0.0059 µM in series [6].
Regarding `Oc1nc2cc(Cl)cnc2nc1O`, the figures for the concentration for half-maximal inhibition (IC50) in series [4], in series [5] and in [6] were 38 µM, 22 µM and 2.2 µM, respectively.
